The target in one series is Estrogen receptor beta (Homo sapiens, UniProt Q92731).
Series [1] addresses T1, Estrogen receptor (Homo sapiens, UniProt P03372).
T1 sequence (P03372 whole entry): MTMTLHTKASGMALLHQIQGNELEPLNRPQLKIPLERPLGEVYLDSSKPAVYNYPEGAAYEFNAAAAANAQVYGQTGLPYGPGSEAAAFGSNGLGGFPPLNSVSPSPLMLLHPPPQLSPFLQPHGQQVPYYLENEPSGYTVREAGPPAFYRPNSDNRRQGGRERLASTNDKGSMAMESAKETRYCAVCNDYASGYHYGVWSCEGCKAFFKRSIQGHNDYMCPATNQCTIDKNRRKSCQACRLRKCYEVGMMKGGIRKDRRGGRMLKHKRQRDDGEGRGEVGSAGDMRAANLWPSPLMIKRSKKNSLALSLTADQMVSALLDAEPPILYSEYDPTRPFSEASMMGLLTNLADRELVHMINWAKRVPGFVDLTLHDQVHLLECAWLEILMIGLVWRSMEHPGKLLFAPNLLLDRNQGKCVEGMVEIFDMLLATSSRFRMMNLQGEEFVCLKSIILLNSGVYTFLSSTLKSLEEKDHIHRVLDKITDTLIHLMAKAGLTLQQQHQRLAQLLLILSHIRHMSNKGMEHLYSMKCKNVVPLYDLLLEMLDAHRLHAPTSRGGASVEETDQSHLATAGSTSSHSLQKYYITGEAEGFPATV
Description: Agonist activity at human ERalpha receptor expressed in HEK293T cells transfected with pGL4.27-(ERE)3-Luc assessed as transcriptional activation measured after 16 hrs by Dual-Glo luciferase assay

Series [2] addresses T1, Estrogen receptor. Kind of series: Agonist activity at human ERalpha receptor expressed in HEK293T cells transfected with pGL4.27-(ERE)3-Luc assessed as transcriptional activation at 10 uM measured after 16 hrs by Dual-Glo luciferase assay relative to 17beta-estradiol. It is filed as cell-based.

Results on 22 compounds are retold here after ChEMBL document CHEMBL4715775, “Synthesis and structure-activity relationships of 1-benzylindane derivatives as selective agonists for estrogen receptor beta” (Bioorg Med Chem, 2016).

Broadly, the EC50 is the midpoint of the concentration-response curve. High values mean lower potency in that assay, low ones higher potency in that assay.

The structures appear in SMILES notation.

Chain of Estrogen receptor beta (Q92731 whole entry): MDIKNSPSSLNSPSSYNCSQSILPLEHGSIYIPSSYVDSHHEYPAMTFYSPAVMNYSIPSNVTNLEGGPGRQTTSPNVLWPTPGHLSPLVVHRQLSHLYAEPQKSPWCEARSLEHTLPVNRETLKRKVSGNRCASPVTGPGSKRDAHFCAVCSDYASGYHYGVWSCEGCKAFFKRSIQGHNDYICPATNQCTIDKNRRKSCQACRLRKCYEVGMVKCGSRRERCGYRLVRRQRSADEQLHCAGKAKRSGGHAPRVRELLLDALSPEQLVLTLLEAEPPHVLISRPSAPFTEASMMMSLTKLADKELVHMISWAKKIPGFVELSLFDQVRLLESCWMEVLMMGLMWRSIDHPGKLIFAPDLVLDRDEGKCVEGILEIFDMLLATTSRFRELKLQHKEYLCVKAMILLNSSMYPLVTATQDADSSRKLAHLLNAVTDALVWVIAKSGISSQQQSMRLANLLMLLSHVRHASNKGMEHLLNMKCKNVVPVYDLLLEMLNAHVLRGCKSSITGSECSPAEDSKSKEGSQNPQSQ
Description for Estrogen receptor beta: Agonist activity at human ERbeta receptor expressed in HEK293T cells transfected with pGL4.27-(ERE)3-Luc assessed as transcriptional activation measured after 16 hrs by Dual-Glo luciferase assay

On to `Oc1ccc(CC2CCc3ccc(O)cc32)cc1` (centres undefined), for which the EC50 at Estrogen receptor beta amounted to 25.9 nM; at Estrogen receptor [1], 2110 nM.

As to `N#CCC1(Cc2ccc(O)cc2)CCc2cc(O)ccc21` (centres undefined), on Estrogen receptor beta, a half-maximal effect (EC50) was put at 3.05 nM.

On Estrogen receptor [1], `N#C[C@]1(Cc2ccc(O)cc2)CCc2cc(O)ccc21` yielded an EC50 of 3020 nM.

Regarding `Oc1cccc(CC2CCc3cc(O)ccc32)c1` (centres undefined), the concentration for a half-maximal effect (EC50) on Estrogen receptor beta turned out to be 32.5 nM; at Estrogen receptor [1], 3090 nM.

For the compound `N#CC1(Cc2ccc(O)cc2F)CCc2cc(O)ccc21` (centres undefined), the figures for the EC50 at Estrogen receptor beta and at Estrogen receptor [1] were 0.15 nM and 256 nM, respectively.

In the case of `Oc1ccc(CCc2ccc(O)cc2)cc1`, at Estrogen receptor [2], the Activity is listed as 47%.

On to `Cc1cc(O)ccc1CC1(C#N)CCc2cc(O)ccc21` (centres undefined), for which the EC50 on Estrogen receptor beta was determined as 0.48 nM; at Estrogen receptor [1] it was 950 nM.

Compound `N#CC1(Cc2ccc(O)cc2)CCc2cc(O)ccc21` (racemic) came in with an EC50 on Estrogen receptor [1] of 2790 nM.

On to `Oc1ccc(CC2CCCCc3cc(O)ccc32)cc1` (centres undefined), for which the concentration giving a half-maximal response (EC50) on Estrogen receptor beta stood at 0.15 nM; at Estrogen receptor [1] it was 123 nM.

`N#CC1(Cc2ccc(O)cc2Cl)CCc2cc(O)ccc21` (centres undefined) came in with an EC50 on Estrogen receptor beta of 0.05 nM.

At Estrogen receptor beta, `N#CC1(Cc2ccc(O)c(Cl)c2)CCc2cc(O)ccc21` (centres undefined) showed a 50% effective concentration (EC50) of 11.6 nM. Further, the Activity at Estrogen receptor [2] is on record as 7%.

In turn, `Oc1ccc(CC2CCc3c(O)cccc32)cc1` (centres undefined) returned an EC50 on Estrogen receptor beta of 72.4 nM.

Turning to `N#C[C@@]1(Cc2ccc(O)cc2)CCc2cc(O)ccc21`, a half-maximal response on Estrogen receptor [1] (EC50) required 2410 nM.

In the case of `Cc1cc(CC2(C#N)CCc3cc(O)ccc32)ccc1O` (centres undefined), the half-maximal effective concentration (EC50) at Estrogen receptor beta amounted to 10.7 nM. Besides, the Activity on Estrogen receptor [2] worked out at 2%.

On to `CCC1(Cc2ccc(O)cc2)CCc2cc(O)ccc21` (centres undefined), for which the half-maximal effective concentration (EC50) is 0.36 nM at Estrogen receptor beta and 116 nM at Estrogen receptor [1].

`CCCCC1(Cc2ccc(O)cc2)CCc2cc(O)ccc21` (centres undefined) displayed an EC50 on Estrogen receptor beta of 6.59 nM. The Activity on Estrogen receptor [2] came out at 42%.

`CC1(Cc2ccc(O)cc2)CCc2cc(O)ccc21` (centres undefined): the EC50 at Estrogen receptor [1] turned out to be 481 nM.

In the case of `Oc1ccc(CC2CCCc3cc(O)ccc32)cc1` (centres undefined), the EC50 at Estrogen receptor beta is 0.18 nM; on Estrogen receptor [1] it was 102 nM.

Regarding `CCC(c1ccc(O)cc1)C1CCc2cc(O)ccc21` (centres undefined), the EC50 at Estrogen receptor beta worked out at 0.1 nM.

Consider `CCC(Cc1ccc(O)cc1)c1ccc(O)cc1` (centres undefined) [ISOBUTESROL], for which the 50% effective concentration (EC50) turned out to be 0.23 nM at Estrogen receptor beta and 185 nM at Estrogen receptor [1].

In the case of `N#CC1(Cc2ccc(O)c(F)c2)CCc2cc(O)ccc21` (centres undefined), the EC50 at Estrogen receptor beta came to 0.91 nM; at Estrogen receptor [1], 1820 nM.

`CCCC1(Cc2ccc(O)cc2)CCc2cc(O)ccc21` (centres undefined) came in with an EC50 on Estrogen receptor [1] of 169 nM.
